In ChEMBL document CHEMBL3875157, “Neurodegenerative diseases linked to misfolded proteins and their therapeutic approaches: A review” (Eur J Med Chem, 2016):

Molecular target: Acetylcholinesterase (Homo sapiens, UniProt P22303)
Assay: Inhibition of acetylcholinesterase (unknown origin)

Acetylcholinesterase, sequence (P22303 whole entry): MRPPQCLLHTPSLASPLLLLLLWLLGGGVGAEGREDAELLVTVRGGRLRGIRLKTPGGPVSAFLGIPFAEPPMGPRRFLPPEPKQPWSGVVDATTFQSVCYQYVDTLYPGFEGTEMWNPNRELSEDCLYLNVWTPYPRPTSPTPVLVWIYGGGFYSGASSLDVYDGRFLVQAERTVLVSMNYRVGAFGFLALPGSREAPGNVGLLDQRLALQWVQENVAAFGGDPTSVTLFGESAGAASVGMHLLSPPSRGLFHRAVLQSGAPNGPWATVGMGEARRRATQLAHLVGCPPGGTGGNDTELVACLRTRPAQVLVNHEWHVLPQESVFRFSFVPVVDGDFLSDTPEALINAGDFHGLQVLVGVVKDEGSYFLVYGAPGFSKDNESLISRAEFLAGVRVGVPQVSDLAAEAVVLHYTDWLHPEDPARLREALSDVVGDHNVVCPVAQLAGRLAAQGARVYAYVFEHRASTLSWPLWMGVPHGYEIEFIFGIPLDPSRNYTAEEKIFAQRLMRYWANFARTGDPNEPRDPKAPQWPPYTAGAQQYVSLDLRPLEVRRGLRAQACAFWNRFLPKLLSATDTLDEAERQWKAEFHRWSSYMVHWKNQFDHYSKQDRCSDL

With `CCOC(=O)C1=C(C)Oc2nc3c(c(N)c2C1c1ccc(OC)cc1)CCCC3` (stereo unspecified) the IC50 was 182 to 868 nM.
